Active and inactive are the calls of the source. The rule behind the calls is not given here.
Columns and labels:
[1] = molecular target: T1, AMP-activated protein kinase, AMPK (Homo sapiens) (UniProt P54646+O43741+P54619+Q9UGJ0+Q9Y478+Q13131+Q9UGI9); assay: Activation of AMPK in palmitate-induced insulin-resistant human HepG2 cells assessed as reduction in PEPCK mRNA expression at 12.5 uM incubated for 24 hrs by real-time PCR method; assay type: cell-based
[2] = molecular target: T1, AMP-activated protein kinase, AMPK (Homo sapiens); assay: Activation of AMPK in palmitate-induced insulin-resistant human HepG2 cells assessed as reduction in GLUT2 mRNA expression at 12.5 uM incubated for 24 hrs by real-time PCR method; assay type: cell-based
HepG2 [3] = assay: Stimulation of glucose consumption in palmitate-induced insulin-resistant human HepG2 cells at 12.5 uM incubated for 24 hrs by glucose oxidase based assay relative to palmitate; assay type: functional
[4] = molecular target: T1, AMP-activated protein kinase, AMPK (Homo sapiens); assay: Activation of AMPK in palmitate-induced insulin-resistant human HepG2 cells assessed as increase in AMPK phosphorylation at 12.5 uM incubated for 24 hrs by Western blot method; assay type: cell-based
[5] = molecular target: T1, AMP-activated protein kinase, AMPK (Homo sapiens); assay: Activation of AMPK in palmitate-induced insulin-resistant human HepG2 cells assessed as reduction in G6Pase mRNA expression at 12.5 uM incubated for 24 hrs by real-time PCR method; assay type: cell-based
HepG2 [6] = assay: Stimulation of glucose consumption in palmitate-induced insulin-resistant human HepG2 cells at 12.5 uM incubated for 24 hrs by glucose oxidase based assay; assay type: functional, cell-based
[7] = molecular target: T1, AMP-activated protein kinase, AMPK (Homo sapiens); assay: Activation of AMPK in palmitate-induced insulin-resistant human HepG2 cells assessed as reduction in GLUT2 mRNA expression at 12.5 uM incubated for 24 hrs after 1 hr pre-incubation of cells with 10 uM AMPK inhibitor compound C by real-time PCR method; assay type: cell-based
HepG2 [8] = assay: Cytotoxicity in palmitate-induced insulin-resistant human HepG2 cells assessed as reduction in cell viability at 12.5 uM incubated for 24 hrs by MTT assay; assay type: cell-based; conditions: hepg2, 24 h
[9] = Cytotoxicity in human HepG2 cells assessed as cell viability at 50 uM incubated for 24 hrs by MTT assay; assay type: cell-based; conditions: read-out: Activity
[10] = Cytotoxicity in human HepG2 cells assessed as cell viability at 25 uM incubated for 24 hrs by MTT assay; assay type: cell-based; conditions: read-out: Activity
[11] = molecular target: T1, AMP-activated protein kinase, AMPK (Homo sapiens); assay: Activation of AMPK in palmitate-induced insulin-resistant human HepG2 cells assessed as reduction in PEPCK mRNA expression at 12.5 uM incubated for 24 hrs after 1 hr pre-incubation of cells with 10 uM AMPK inhibitor compound C by real-time PCR method; assay type: cell-based
HepG2 [12] = assay: Cytotoxicity in human HepG2 cells assessed as reduction in cell viability at 3.125 to 50 uM incubated for 24 hrs by MTT assay; assay type: cell-based; conditions: hepg2, 24 h
[13] = molecular target: RAC-alpha serine/threonine-protein kinase (Homo sapiens) (UniProt P31749); assay: Activation of AKT in palmitate-induced insulin-resistant human HepG2 cells assessed as reduction in GLUT2 mRNA expression at 12.5 uM incubated for 24 hrs after 1 hr pre-incubation of cells with 0.5 uM AKT inhibitor […] by real-time PCR method; assay type: cell-based
HepG2 [14] = assay: Cytotoxicity in human HepG2 cells assessed as reduction in cell viability up to 12.5 uM incubated for 24 hrs by MTT assay; assay type: cell-based; conditions: hepg2, 24 h
[15] = molecular target: RAC-alpha serine/threonine-protein kinase (Homo sapiens) (UniProt P31749); assay: Activation of AKT in palmitate-induced insulin-resistant human HepG2 cells assessed as reduction in G6Pase mRNA expression at 12.5 uM incubated for 24 hrs after 1 hr pre-incubation of cells with 0.5 uM AKT inhibitor […] by real-time PCR method; assay type: cell-based
[16] = molecular target: RAC-alpha serine/threonine-protein kinase (Homo sapiens) (UniProt P31749); assay: Activation of AKT in palmitate-induced insulin-resistant human HepG2 cells assessed as increase in AKT phosphorylation at 12.5 uM incubated for 24 hrs by Western blot method; assay type: cell-based
[17] = molecular target: RAC-alpha serine/threonine-protein kinase (Homo sapiens) (UniProt P31749); assay: Activation of AKT in palmitate-induced insulin-resistant human HepG2 cells assessed as reduction in G6Pase mRNA expression at 12.5 uM incubated for 24 hrs after 1 hr pre-incubation of cells with 10 uM AMPK inhibitor compound C by real-time PCR method; assay type: cell-based
[18] = molecular target: RAC-alpha serine/threonine-protein kinase (Homo sapiens) (UniProt P31749); assay: Activation of AKT in palmitate-induced insulin-resistant human HepG2 cells assessed as reduction in GLUT2 mRNA expression at 12.5 uM incubated for 24 hrs after 1 hr pre-incubation of cells with 10 uM AMPK inhibitor compound C by real-time PCR method; assay type: cell-based
[19] = molecular target: RAC-alpha serine/threonine-protein kinase (Homo sapiens) (UniProt P31749); assay: Activation of AKT in palmitate-induced insulin-resistant human HepG2 cells assessed as reduction in PEPCK mRNA expression at 12.5 uM incubated for 24 hrs after 1 hr pre-incubation of cells with 10 uM AMPK inhibitor compound C by real-time PCR method; assay type: cell-based
[20] = molecular target: RAC-alpha serine/threonine-protein kinase (Homo sapiens) (UniProt P31749); assay: Activation of AKT in palmitate-induced insulin-resistant human HepG2 cells assessed as reduction in PEPCK mRNA expression at 12.5 uM incubated for 24 hrs after 1 hr pre-incubation of cells with 0.5 uM AKT inhibitor […] by real-time PCR method; assay type: cell-based
[21] = molecular target: T1, AMP-activated protein kinase, AMPK (Homo sapiens); assay: Activation of AMPK in palmitate-induced insulin-resistant human HepG2 cells assessed as reduction in G6Pase mRNA expression at 12.5 uM incubated for 24 hrs after 1 hr pre-incubation of cells with 10 uM AMPK inhibitor compound C by real-time PCR method; assay type: cell-based

Sequence of RAC-alpha serine/threonine-protein kinase (Homo sapiens) (P31749 whole entry): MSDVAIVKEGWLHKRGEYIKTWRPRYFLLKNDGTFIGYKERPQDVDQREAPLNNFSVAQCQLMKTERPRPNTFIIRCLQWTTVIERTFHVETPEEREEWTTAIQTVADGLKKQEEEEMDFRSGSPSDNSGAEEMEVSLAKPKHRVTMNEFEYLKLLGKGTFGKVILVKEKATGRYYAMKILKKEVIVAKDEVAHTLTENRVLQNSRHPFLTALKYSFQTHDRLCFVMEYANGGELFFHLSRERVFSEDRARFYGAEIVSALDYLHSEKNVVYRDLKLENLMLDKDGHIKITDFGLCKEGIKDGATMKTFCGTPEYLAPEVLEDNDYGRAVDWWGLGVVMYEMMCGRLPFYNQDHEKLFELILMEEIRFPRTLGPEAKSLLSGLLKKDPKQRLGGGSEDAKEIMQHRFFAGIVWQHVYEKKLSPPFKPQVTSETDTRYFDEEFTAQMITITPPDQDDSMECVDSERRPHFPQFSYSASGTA

Structure (SMILES) | Activity [1] | Activity [2] | Activity [4] | Activity [5] | Activity [7] | Activity [11] | Activity [13] | Activity [16] | Activity (HepG2 [6]) | Activity (HepG2 [8]) | Activity (HepG2 [14]) | other results
CN(CCOc1ccc(CC2SC(=O)NC2=O)cc1)c1ccccn1 (configuration not stated) [ROSIGLITAZONE] | Active | Active | Active | Active |  |  |  |  | Active |  |  | Activity (HepG2 [3]): 7%
O=C(O)[C@H]1O[C@@H](Oc2cc3oc(-c4ccccc4)cc(=O)c3c(O)c2O[C@@H]2O[C@H](CO)[C@@H](O)[C@H](O)[C@H]2O)[C@H](O)[C@@H](O)[C@@H]1O | Active | Active | Active | Active |  |  | Active | Active | Active | Non-Toxic | Non-Toxic | Activity [15]: inactive; Activity [17]: Active; Activity [18]: Active; Activity [19]: Active; Activity [20]: inactive
O=c1cc(-c2ccccc2)oc2cc(O)c(O)c(O)c12 [BAICALEIN] | Active | Active | Active | Active | inactive | inactive | Active | Active | Active | Non-Toxic | Non-Toxic | Activity [21]: inactive

Continued, in another order:

Activity [1] | Activity [2] | Activity [4] | Activity [5] | Activity [7] | Activity [11] | Activity [13] | Activity [16] | Structure (SMILES) | Activity (HepG2 [6]) | Activity (HepG2 [8]) | Activity (HepG2 [14]) | other results
Active | Active | Active | Active | inactive | inactive |  |  | O=C(O)[C@H]1O[C@@H](Oc2cc3oc(-c4ccccc4)cc(=O)c3c(O)c2O)[C@H](O)[C@@H](O)[C@@H]1O [BAICALIN] | Active | Non-Toxic |  | viability at 24 h, 50 µM [9]: 85%; viability at 24 h, 25 µM [10]: 85%; Activity (HepG2 [12]): Non-Toxic
 |  |  |  |  |  | Active |  | COc1c(O[C@@H]2O[C@H](C(=O)O)[C@@H](O)[C@H](O)[C@H]2O)cc2oc(-c3ccccc3)cc(=O)c2c1O | inactive | Non-Toxic | Non-Toxic | 
